From US8338598B2, “Herbicidal pyrido[2,3-B]pyrazines and their use as herbicides” (Syngenta Limited, priority 2008, dated 2012)

Experiments:
Type in all cases: in vivo
Amaranthus retroflexus [1] = experiment: Example B1 herbicidal action, post-emergence, seed trays in climatic chamber; conditions: 1000 g/ha, evaluated after 9 days, 10=total damage to plant, 0=no damage to plant
Protocol: (§1) Seeds of a variety of test species were sown in sterilised standard soil in seed trays each having 96 cells. After cultivation for 8 to 9 days cultivation (post-emergence) under controlled conditions in a climatic chamber (cultivation at 23/17° C., day/night; 13 hours light; 50-60% humidity), the plants were treated with an aqueous spray solution of 1000 mg/l of the active ingredient dissolved in 10% DMSO (dimethyl sulfoxide, CAS RN 67-68-5) as a solvent, equivalent to 1000 g/ha. The plants were grown in the climatic chamber after application at (24/19° C., day/night; 13 hours light; 50-60% humidity) and watered twice daily. After 9 days until the test was evaluated (10=total damage to plant, 0=no damage to plant)

Nasturtium officinale = experiment: as above; conditions: 1000 g/ha, evaluated after 9 days, 10=total damage to plant, 0=no damage to plant
Protocol: as §1

Solanum nigrum [2] = experiment: as above; conditions: 1000 g/ha, evaluated after 9 days, 10=total damage to plant, 0=no damage to plant
Protocol: as §1

Stellaria media = experiment: as above; conditions: 1000 g/ha, evaluated after 9 days, 10=total damage to plant, 0=no damage to plant
Protocol: as §1

Amaranthus retroflexus [3] = experiment: Example B2 herbicidal action, post-emergence, pots in glasshouse; conditions: evaluated after 13 days, 10=total damage to plant, 0=no damage to plant
Protocol: (§2) Seeds of a variety of test species were sown in standard soil in pots. After cultivation for one day (pre-emergence) or after 8 days cultivation (post-emergence) under controlled conditions in a glasshouse (at 24/16° C., day/night; 14 hours light; 65% humidity), the plants were sprayed with an aqueous spray solution derived from the formulation of the technical active ingredient in acetone/water (50:50) solution containing 0.5% Tween 20 (polyoxyethelyene sorbitan monolaurate, CAS RN 9005-64-5). The test plants were then grown in a glasshouse under controlled conditions in a glasshouse (at 24/16° C., day/night; 14 hours light; 65% humidity) and watered twice daily. After 13 days, the test was evaluated (10=total damage to plant; 0=no damage to plant).

Echinochloa crus-galli [4] = experiment: as above; conditions: evaluated after 13 days, 10=total damage to plant, 0=no damage to plant
Protocol: as §2

Solanum nigrum [5] = experiment: as above; conditions: evaluated after 13 days, 10=total damage to plant, 0=no damage to plant
Protocol: as §2

Ipomea hederaceae [6] = experiment: as above; conditions: evaluated after 13 days, 10=total damage to plant, 0=no damage to plant
Protocol: as §2

Setaria faberi [7] = experiment: as above; conditions: evaluated after 13 days, 10=total damage to plant, 0=no damage to plant
Protocol: as §2

test plants = experiment: Example B2 herbicidal action, pre-emergence, overall statement on the test plants; conditions: Example B2 protocol, rate not stated, result in words
Protocol: as §2

Amaranthus retroflexus [8] = experiment: Example B2 herbicidal action, pre-emergence, pots in glasshouse; conditions: 1000 g/ha, evaluated after 13 days, 10=total damage to plant, 0=no damage to plant
Protocol: as §2

Echinochloa crus-galli [9] = experiment: as above; conditions: 1000 g/ha, evaluated after 13 days, 10=total damage to plant, 0=no damage to plant
Protocol: as §2

Solanum nigrum [10] = experiment: as above; conditions: 1000 g/ha, evaluated after 13 days, 10=total damage to plant, 0=no damage to plant
Protocol: as §2

Ipomea hederaceae [11] = experiment: as above; conditions: 1000 g/ha, evaluated after 13 days, 10=total damage to plant, 0=no damage to plant
Protocol: as §2

Setaria faberi [12] = experiment: as above; conditions: 1000 g/ha, evaluated after 13 days, 10=total damage to plant, 0=no damage to plant
Protocol: as §2

Structure (SMILES) | AMARE, damage to plant (Amaranthus retroflexus [1]) | NAAOF, damage to plant (Nasturtium officinale) | SOLNI, damage to plant (Solanum nigrum [2]) | STEME, damage to plant (Stellaria media) | AMARE, damage to plant (Amaranthus retroflexus [3]; 1000 g/ha) | ECHCG, damage to plant (Echinochloa crus-galli [4]; 1000 g/ha) | SOLNI, damage to plant (Solanum nigrum [5]; 1000 g/ha) | IPOHE, damage to plant (Ipomea hederaceae [6]; 1000 g/ha) | SETFA, damage to plant (Setaria faberi [7]; 1000 g/ha) | other results
Cc1noc(-c2c(O)c3nccnc3n(C)c2=O)n1 [Compound B5, 8-hydroxy-5-methyl-7-(3-methyl-1,2,4-oxadiazol-5-yl)-5H-pyrido[2,3-b]pyrazin-6-one] | 3 | 0 | 0 | 0 | – | – | – | – | – | –
O=c1[nH]c2nccnc2c(O)c1-c1sc(Cl)nc1C(F)(F)F [Compound B11] | 3 | 5 | 2 | 5 | – | – | – | – | – | –
O=c1[nH]c2nccnc2c(O)c1-c1ccc(Cl)nc1Cl [Compound A13, 7-(2,6-dichloro-pyrid-3-yl)-8-hydroxy-5H-pyrido[2,3-b]pyrazin-6-one] | – | – | – | – | 6 | 6 | 5 | 6 | 6 | damage to the test plants (test plants): little or no damage
Cc1nc(Cl)sc1-c1c(OC(=O)C(C)(C)C)c2nccnc2n(C)c1=O [Compound B3] | 0 | 6 | 0 | 2 | – | – | – | – | – | –
Cn1nc(-c2c(O)c3nccnc3[nH]c2=O)c(C(F)(F)F)n1 [Compound B27] | – | – | – | – | 0 | 1 | 0 | 1 | 3 | damage to the test plants (test plants): little or no damage
Cc1nc2cc(-c3c(OC(=O)C(C)(C)C)c4nccnc4n(CC(F)F)c3=O)ccc2o1 [Compound C6] | – | – | – | – | 3 | 0 | 2 | 0 | 0 | damage to the test plants (test plants): little or no damage
CCn1c(=O)c(-c2sc(Cl)nc2C)c(OC(=O)C(C)(C)C)c2nccnc21 [Compound B4] | 0 | 8 | 3 | 2 | – | – | – | – | – | –
Cc1nc(Cl)sc1-c1c(OC(=O)C(C)C)c2nccnc2n(C)c1=O [Compound B2, isobutyric acid 7-(2-chloro-4-methyl-thiazol-5-yl)-5-methyl-6-oxo-5,6-dihydro-pyrido[2,3-b]pyrazin-8-yl ester] | 0 | 5 | 0 | 0 | – | – | – | – | – | –
CCOC(=O)Oc1c(-c2ncc(Cl)cc2Cl)c(=O)n(C)c2nccnc12 [Compound A2, Carbonic acid 7-(3,5-dichloro-pyrid-2-yl)-5-methyl-6-oxo-5,6-dihydro-pyrido-[2,3-b]pyrazin-8-yl ester ethyl ester] | 0 | 5 | 0 | 5 | – | – | – | – | – | –
CC(C)C(=O)Oc1c(-c2c(C(F)(F)F)nn(C)c2OC(F)F)c(=O)[nH]c2nccnc12 [Compound B23, isobutyric acid 7-(5-difluoromethoxy-1-methyl-3-trifluoromethyl-1H-pyrazol-4-yl)-6-oxo-5,6-dihydro-pyrido[2,3-b]pyrazin-8-yl ester] | – | – | – | – | – | – | – | – | – | AMARE, damage to plant (Amaranthus retroflexus [3]; 250 g/ha): 3; ECHCG, damage to plant (Echinochloa crus-galli [4]; 250 g/ha): 2; SOLNI, damage to plant (Solanum nigrum [5]; 250 g/ha): 1; IPOHE, damage to plant (Ipomea hederaceae [6]; 250 g/ha): 2; SETFA, damage to plant (Setaria faberi [7]; 250 g/ha): 4; damage to the test plants (test plants): little or no damage
CCn1c(=O)c(-c2ncc(Cl)cc2Cl)c(OC(=O)C(C)C)c2nccnc21 [Compound A6, isobutyric acid 7-(3,5-dichloro-pyrid-2-yl)-5-ethyl-6-oxo-5,6-dihydro-pyrido[2,3-b]pyrazin-8-yl ester] | 2 | 5 | 0 | 3 | – | – | – | – | – | –
CC(C)C(=O)Oc1c(-c2cc(C(F)(F)F)no2)c(=O)n(C)c2nccnc12 [Compound B8, isobutyric acid 5-methyl-6-oxo-7-(3-trifluoromethyl-isoxazol-5-yl)-5,6-dihydro-pyrido[2,3-b]pyrazin-8-yl ester] | 0 | 2 | 2 | 0 | – | – | – | – | – | –
CC(C)(C)C(=O)Oc1c(-c2c(Cl)cncc2Cl)c(=O)[nH]c2nccnc12 [Compound A8, 2,2-Dimethyl-propionic acid 7-(3,5-dichloro-pyrid-4-yl)-6-oxo-5,6-dihydro-pyrido[2,3-b]pyrazin-8-yl ester] | – | – | – | – | 0 | 0 | 1 | 1 | 0 | damage to the test plants (test plants): little or no damage
CC(C)C(=O)Oc1c(-c2ncc(Cl)cc2Cl)c(=O)n(C)c2nccnc12 [Compound A7, Isobutyric acid 7-(3,5-dichloro-pyrid-2-yl)-5-methyl-6-oxo-5,6-dihydro-pyrido[2,3-b]pyrazin-8-yl ester] | 7 | 7 | 0 | 7 | – | – | – | – | – | –
O=c1[nH]c2nccnc2c(O)c1-c1cc(Cl)sc1Cl [Compound B12] | 6 | 0 | 0 | 0 | – | – | – | – | – | –
Cc1cc(-c2c(OC(=O)C(C)C)c3nccnc3[nH]c2=O)n2nc(C)cc2n1 [Compound C4] | 0 | 0 | 2 | 0 | – | – | – | – | – | –
O=c1c(-c2c(Cl)cncc2Cl)c(O)c2nccnc2n1CC(F)F [Compound A12, 7-(3,5-Dichloro-pyrid-4-yl)-5-(2,2-difluoro-ethyl)-8-hydroxy-5H-pyrido[2,3-b]pyrazin-6-one] | – | – | – | – | 9 | 8 | 10 | 9 | 8 | AMARE, damage to plant (Amaranthus retroflexus [8]): 4; ECHCG, damage to plant (Echinochloa crus-galli [9]): 6; SOLNI, damage to plant (Solanum nigrum [10]): 2; IPOHE, damage to plant (Ipomea hederaceae [11]): 5; SETFA, damage to plant (Setaria faberi [12]): 4
Cn1nc(C(F)(F)F)c(-c2c(O)c3nccnc3[nH]c2=O)c1OC(F)F [Compound B26, 7-(5-difluoromethoxy-1-methyl-3-trifluoromethyl-1H-pyrazol-4-yl)-8-hydroxy-5H-pyrido[2,3-b]pyrazin-6-one] | – | – | – | – | 5 | 6 | 3 | 3 | 8 | AMARE, damage to plant (Amaranthus retroflexus [8]): 1; ECHCG, damage to plant (Echinochloa crus-galli [9]): 1; SOLNI, damage to plant (Solanum nigrum [10]): 0; IPOHE, damage to plant (Ipomea hederaceae [11]): 0; SETFA, damage to plant (Setaria faberi [12]): 0
